# Source: article PMC9415947 (Pharmaceuticals, 2022)
# Where two headings read alike, the source gives them in different places.
# Legend:
# PI3Kδ [1] = target: T1, PI3Kδ (Homo sapiens, UniProt O00329); assay: In vitro PI3K inhibition assay (ADP-Glo kinase assay), PI3Kδ; format: biochemical; conditions: mean of two independent experiments
# T1 construct: purchased Merck Millipore
# Protocol: (§1) All compounds were tested in a biochemical assay that measured the inhibition of phosphatidylinositol […] production by PI3K isoforms using the ADP-Glo kinase assay (Promega). In addition, the effects of synthesized compounds on B cell proliferation were measured.
# (§2) The potency and selectivity of compounds were assessed by measuring the ability of PI3K kinases to convert ATP to ADP during an enzymatic reaction in the presence of decreasing doses of tested compounds. The experiments were carried out using the ADP-Glo kinase assay kit (Promega), according to the manufacturer’s protocol. PI3Kα, PI3Kβ, PI3Kδ, and PI3Kγ have been purchased from Merck Millipore and phosphoinositol-4,5-bisphosphate (PIP2) lipid vesicles with phosphoserine from ThermoFisher Scientific were used as a substrate in the enzymatic reaction.
# (§3) After the reaction, the ADP-Glo reagent and the kinase detection reagent were added sequentially with 40 min of incubation (25 °C, 600 rpm) after adding each reagent. Finally, the luminescence intensity was measured and the IC50 was calculated using GraphPad Prism 7 software. The presented results are the mean value of IC50 from at least two independent experiments.
# PI3Kα [2] = target: T2, PI3Kα (Homo sapiens, UniProt P42336); assay: In vitro PI3K inhibition assay (ADP-Glo kinase assay), PI3Kα; format: biochemical; conditions: for Fold Selectivity α/δ: ratio IC50 PI3Kα / IC50 PI3Kδ
# T2 construct: purchased Merck Millipore (methods text)
# T2 sequence (P42336 whole entry): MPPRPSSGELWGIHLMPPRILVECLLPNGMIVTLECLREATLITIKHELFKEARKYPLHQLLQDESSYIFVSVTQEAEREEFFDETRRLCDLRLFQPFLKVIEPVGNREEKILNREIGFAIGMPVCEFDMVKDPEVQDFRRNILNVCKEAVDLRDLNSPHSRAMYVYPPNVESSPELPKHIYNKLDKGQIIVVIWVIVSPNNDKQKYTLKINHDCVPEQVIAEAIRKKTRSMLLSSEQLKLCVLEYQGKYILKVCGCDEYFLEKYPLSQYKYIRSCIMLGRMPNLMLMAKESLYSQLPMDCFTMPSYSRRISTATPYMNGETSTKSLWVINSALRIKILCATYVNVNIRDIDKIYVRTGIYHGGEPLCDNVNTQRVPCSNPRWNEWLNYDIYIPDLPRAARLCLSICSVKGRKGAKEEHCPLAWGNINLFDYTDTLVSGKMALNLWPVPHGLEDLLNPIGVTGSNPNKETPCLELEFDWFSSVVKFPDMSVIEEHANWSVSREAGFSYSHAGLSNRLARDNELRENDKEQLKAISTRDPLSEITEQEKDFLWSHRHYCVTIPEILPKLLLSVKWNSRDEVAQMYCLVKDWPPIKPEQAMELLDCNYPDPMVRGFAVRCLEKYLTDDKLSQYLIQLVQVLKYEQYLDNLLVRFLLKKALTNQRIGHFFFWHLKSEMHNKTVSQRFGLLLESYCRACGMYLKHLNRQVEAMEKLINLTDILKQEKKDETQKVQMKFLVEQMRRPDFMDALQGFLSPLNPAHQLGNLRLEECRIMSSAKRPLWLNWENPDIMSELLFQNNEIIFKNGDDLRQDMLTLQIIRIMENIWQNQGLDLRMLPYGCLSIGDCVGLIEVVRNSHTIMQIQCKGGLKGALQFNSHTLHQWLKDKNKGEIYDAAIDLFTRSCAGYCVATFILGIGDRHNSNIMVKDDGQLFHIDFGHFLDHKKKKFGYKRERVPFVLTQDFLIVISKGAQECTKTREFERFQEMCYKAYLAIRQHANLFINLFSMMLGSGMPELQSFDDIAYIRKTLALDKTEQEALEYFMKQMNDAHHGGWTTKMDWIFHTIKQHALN
# T2 sequence (P27986 whole entry partner): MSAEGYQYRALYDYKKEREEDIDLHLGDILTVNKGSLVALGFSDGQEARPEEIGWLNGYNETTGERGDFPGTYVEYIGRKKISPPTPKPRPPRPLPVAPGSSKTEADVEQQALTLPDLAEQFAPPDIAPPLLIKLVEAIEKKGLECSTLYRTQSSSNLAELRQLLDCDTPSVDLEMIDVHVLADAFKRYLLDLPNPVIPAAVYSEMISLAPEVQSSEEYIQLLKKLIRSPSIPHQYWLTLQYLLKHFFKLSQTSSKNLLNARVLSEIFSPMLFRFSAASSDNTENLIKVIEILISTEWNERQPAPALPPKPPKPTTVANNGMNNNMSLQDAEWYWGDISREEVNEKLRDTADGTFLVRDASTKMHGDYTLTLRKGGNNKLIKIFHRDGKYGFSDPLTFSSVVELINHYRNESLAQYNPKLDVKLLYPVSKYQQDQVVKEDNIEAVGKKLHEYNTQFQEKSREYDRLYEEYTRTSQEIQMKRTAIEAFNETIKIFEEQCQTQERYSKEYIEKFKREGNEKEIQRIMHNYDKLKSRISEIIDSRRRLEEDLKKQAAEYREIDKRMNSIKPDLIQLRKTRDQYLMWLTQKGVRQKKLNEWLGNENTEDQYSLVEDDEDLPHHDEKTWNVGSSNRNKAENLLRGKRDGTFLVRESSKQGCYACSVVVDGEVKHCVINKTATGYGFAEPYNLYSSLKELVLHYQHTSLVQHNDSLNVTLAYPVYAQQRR
# Protocol: as §1, §2, §3
# PI3Kβ = target: T3, PI3Kβ (Homo sapiens, UniProt P42338); assay: In vitro PI3K inhibition assay (ADP-Glo kinase assay), PI3Kβ; format: biochemical; conditions: for IC50: mean of two independent experiments; for Fold Selectivity β/δ: ratio IC50 PI3Kβ / IC50 PI3Kδ
# T3 construct: purchased Merck Millipore
# T3 sequence (P42338 whole entry, looked up): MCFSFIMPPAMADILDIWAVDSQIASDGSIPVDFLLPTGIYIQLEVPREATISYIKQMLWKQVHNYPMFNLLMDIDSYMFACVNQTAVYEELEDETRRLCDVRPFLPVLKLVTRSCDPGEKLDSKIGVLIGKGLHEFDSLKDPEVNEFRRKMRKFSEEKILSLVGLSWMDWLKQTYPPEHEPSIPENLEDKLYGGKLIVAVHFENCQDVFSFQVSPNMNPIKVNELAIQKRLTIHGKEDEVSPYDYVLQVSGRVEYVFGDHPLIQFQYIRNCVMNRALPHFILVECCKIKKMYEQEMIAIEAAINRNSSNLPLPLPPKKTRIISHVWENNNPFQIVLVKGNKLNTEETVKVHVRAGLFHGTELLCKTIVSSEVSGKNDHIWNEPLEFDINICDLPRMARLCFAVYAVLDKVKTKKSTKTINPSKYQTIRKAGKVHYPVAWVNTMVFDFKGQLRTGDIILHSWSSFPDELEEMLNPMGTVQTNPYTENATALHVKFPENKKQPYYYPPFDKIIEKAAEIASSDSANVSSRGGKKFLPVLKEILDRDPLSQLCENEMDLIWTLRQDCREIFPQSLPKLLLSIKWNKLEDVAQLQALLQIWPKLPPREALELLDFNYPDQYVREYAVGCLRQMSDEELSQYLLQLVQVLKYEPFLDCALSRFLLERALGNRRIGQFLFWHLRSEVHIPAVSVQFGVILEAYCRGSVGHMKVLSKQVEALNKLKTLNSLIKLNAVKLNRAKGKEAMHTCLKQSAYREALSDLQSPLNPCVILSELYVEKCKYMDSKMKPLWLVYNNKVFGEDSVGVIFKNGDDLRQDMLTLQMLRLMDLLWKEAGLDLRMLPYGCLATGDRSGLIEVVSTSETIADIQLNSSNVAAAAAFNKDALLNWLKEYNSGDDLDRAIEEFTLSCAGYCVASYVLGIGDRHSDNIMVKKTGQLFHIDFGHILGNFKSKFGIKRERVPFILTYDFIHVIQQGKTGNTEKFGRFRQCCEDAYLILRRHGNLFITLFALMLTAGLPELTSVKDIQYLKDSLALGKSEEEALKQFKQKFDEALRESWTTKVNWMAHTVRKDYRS
# Protocol: as §1, §2, §3
# PI3Kγ = target: T4, PI3Kγ (Homo sapiens, UniProt P48736); assay: In vitro PI3K inhibition assay (ADP-Glo kinase assay), PI3Kγ; format: biochemical; conditions: for IC50: mean of two independent experiments; for Fold Selectivity γ/δ: ratio IC50 PI3Kγ / IC50 PI3Kδ
# T4 construct: purchased Merck Millipore
# T4 sequence (P48736 whole entry): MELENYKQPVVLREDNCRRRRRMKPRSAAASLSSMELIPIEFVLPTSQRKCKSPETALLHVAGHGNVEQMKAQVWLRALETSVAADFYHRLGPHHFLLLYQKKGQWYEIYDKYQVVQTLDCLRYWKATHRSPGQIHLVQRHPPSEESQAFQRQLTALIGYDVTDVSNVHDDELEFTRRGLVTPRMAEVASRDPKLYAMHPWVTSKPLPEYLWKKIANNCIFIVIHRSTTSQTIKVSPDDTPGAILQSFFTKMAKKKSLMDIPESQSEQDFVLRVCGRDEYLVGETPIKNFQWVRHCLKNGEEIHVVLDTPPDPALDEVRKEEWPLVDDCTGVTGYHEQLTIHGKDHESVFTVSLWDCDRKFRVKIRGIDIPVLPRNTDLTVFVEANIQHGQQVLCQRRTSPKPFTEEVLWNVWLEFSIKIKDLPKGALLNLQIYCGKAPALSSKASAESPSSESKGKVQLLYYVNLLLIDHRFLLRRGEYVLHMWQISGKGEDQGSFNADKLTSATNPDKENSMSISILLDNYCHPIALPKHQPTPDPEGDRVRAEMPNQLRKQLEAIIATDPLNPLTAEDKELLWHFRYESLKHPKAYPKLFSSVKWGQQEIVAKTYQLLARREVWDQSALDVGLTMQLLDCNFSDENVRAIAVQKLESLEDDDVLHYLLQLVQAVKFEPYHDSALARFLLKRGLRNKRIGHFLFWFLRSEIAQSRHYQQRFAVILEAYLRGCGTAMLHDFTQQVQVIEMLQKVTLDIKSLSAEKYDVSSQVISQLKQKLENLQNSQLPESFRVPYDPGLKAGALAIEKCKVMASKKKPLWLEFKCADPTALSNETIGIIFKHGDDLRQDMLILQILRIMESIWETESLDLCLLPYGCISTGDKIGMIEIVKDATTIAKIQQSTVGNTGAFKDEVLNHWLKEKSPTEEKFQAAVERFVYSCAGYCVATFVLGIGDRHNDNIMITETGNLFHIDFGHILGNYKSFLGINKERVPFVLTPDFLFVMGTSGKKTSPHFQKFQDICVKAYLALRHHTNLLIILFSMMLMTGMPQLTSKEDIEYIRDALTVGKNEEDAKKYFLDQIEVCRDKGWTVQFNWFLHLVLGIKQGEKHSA
# Protocol: as §1, §2, §3
# CD19+ B cells = assay: B cell (CD19+) proliferation assay, CFSE flow cytometry; format: cell-based; conditions: Homo sapiens, 96 h; B cell proliferation, activated by αIgM and ODN2006, 4 days; read-out: IC50 CD19
# Protocol: CD19 cells were isolated from PBMCs using magnetic beads (Stem Cell (Vancouver, Canada)) and then labeled with 2 µM of CFSE (Invitrogen (Waltham, MA, USA)).
# After 4 days, cells were stained with LIVE/DEAD™ kit (Invitrogen (Waltham, MA, USA)). Samples were acquired using Attune NxT flow cytometer (Invitrogen) and analyzed using FlowJo software. Each biological assay was performed with cells isolated from a different donor. The presented results constitute the average percentage values of proliferating cells from 3 independent experiments.
# Human PBMCs were isolated from buffy coats of healthy donors obtained from the Regional Blood Donation and Blood Medicine Center in Warsaw. Lymphocytes B: CD19+ cells were isolated from PBMCs on magnetic beads (Stem Cell), labeled with 2 µM CFSE (Invitrogen), and seeded on a 96-well plate (1 × 10^5 cells/well). B cells were activated by 2 µg/mL of αIgM (Jackson ImmunoResearch) and 1 µg/mL of ODN2006 (InvivoGen). Cells were incubated with increasing concentrations of compounds (range 0.03–10,000 nM). After 4 days, B cells were stained with LIVE/DEAD™ kit (Invitrogen), acquired using the Attune NxT flow cytometer (Invitrogen), and analyzed using FlowJo10 software. For data normalization, the percentage value of proliferating cells in each sample was divided by the average percentage value of positive control in a single experiment. IC50 values were calculated using a three-parameter dose–response inhibition function in GraphPad Prism.
# PI3Kδ [3] = target: T1, PI3Kδ; conditions: cited from earlier work
# PI3Kα [4] = target: T2, PI3Kα; conditions: PI3Kδ versus PI3Kα, in words; cited from earlier work
# PI3Kδ [5] = target: T1, PI3Kδ; conditions: cited from earlier work; remark: listed apart in the source
# T1 sequence (O00329 whole entry, looked up): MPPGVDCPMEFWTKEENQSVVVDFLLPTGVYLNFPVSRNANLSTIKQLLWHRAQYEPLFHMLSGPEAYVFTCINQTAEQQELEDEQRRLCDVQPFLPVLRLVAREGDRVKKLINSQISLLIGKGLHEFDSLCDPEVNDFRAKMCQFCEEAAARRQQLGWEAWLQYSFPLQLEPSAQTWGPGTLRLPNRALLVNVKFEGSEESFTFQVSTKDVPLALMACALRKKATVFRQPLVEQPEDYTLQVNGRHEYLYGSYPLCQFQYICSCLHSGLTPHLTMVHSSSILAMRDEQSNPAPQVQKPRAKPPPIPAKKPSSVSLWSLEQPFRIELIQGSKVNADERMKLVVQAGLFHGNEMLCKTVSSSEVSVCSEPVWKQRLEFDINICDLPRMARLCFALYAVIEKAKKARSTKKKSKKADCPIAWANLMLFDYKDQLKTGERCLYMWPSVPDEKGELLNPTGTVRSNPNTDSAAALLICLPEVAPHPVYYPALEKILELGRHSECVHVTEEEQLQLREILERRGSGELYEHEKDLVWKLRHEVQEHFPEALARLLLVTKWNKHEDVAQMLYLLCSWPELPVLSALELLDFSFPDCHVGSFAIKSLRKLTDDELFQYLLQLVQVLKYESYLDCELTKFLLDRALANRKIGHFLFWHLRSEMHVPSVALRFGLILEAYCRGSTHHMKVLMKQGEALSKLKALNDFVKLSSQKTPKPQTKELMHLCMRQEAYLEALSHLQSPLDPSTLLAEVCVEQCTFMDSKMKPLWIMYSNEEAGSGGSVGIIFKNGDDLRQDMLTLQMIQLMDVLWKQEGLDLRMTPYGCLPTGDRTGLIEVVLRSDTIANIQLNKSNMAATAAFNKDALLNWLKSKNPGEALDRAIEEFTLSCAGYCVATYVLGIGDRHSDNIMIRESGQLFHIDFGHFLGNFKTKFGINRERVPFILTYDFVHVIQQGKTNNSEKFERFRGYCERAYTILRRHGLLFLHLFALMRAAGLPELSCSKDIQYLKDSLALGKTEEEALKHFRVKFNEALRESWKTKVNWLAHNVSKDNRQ
Structure (SMILES),IC50 (PI3Kδ [1]) [nM],IC50 (PI3Kα [2]) [nM],Fold Selectivity α/δ (PI3Kα [2]),IC50 (PI3Kβ) [nM],Fold Selectivity β/δ (PI3Kβ),IC50 (PI3Kγ) [nM],Fold Selectivity γ/δ (PI3Kγ),IC50 (CD19+ B cells) [nM],IC50 (PI3Kδ [3]) [nM],selectivity toward the alpha isoform (PI3Kα [4]),PI3Kγ/δ selectivity (PI3Kδ [5])
"CC(C)(C)N1CCN(Cc2cc3nc(-n4c(C5CC5)nc5ccccc54)cc(N4CCOCC4)n3n2)CC1 [Compound 8, 1-{2-[(4-tert-butylpiperazin-1-yl)methyl]-7-(morpholin-4-yl)pyrazolo[1,5-a]pyrimidin-5-yl}-2-cyclopropyl-1H-benzimidazole]",1070,82500,77,259000,242,271000,253,–,–,–,–
"Cc1nc2ccccc2n1-c1cc(N2CCOCC2)n2nc(CN3CCN(C(C)(C)C)CC3)cc2n1 [Compound 5, 1-{2-[(4-tert-butylpiperazin-1-yl)methyl]-7-(morpholin-4-yl)pyrazolo[1,5-a]pyrimidin-5-yl}-2-methyl-1H-benzimidazole]",236,10600,45,298000,1264,175000,742,–,–,–,–
"Cc1nc2ccccc2n1-c1cc(N2CCOCC2)n2nc(CN3CCC(C(C)(C)O)CC3)cc2n1 [Compound 12, 2-(1-{[5-(2-methyl-1H-1,3-benzimidazol-1-yl)-7-(morpholin-4-yl)pyrazolo[1,5-a]pyrimidin-2-yl]methyl}piperidin-4-yl)propan-2-ol]",878,30500,35,195000,222,119000,136,–,–,–,–
"CC(C)(C(N)=O)N1CCN(Cc2cc3nc(-n4c(C(F)F)nc5ccccc54)cc(N4CCOCC4)n3n2)CC1 [Compound 17, 2-[4-({5-[2-(difluoromethyl)-1H-1,3-benzimidazol-1-yl]-7-(morpholin-4-yl)pyrazolo[1,5-a]pyrimidin-2-yl}methyl)piperazin-1-yl]-2-methylpropanamide]",31,624,20,44800,1444,2200,71,52,–,–,–
O=C(C1CC1)N1CCN(Cc2cc3nc(-n4c(C(F)F)nc5ccccc54)cc(N4CCOCC4)n3n2)CC1 [Compound 18],24,73,3.0,47400,1973,156,6.5,58,–,–,–
"CS(=O)(=O)N1CCN(Cc2cc3nc(-n4c(C(F)F)nc5ccccc54)cc(N4CCOCC4)n3n2)CC1 [Compound 16, 2-(difluoromethyl)-1-{2-[(4-methanesulfonylpiperazin-1-yl)methyl]-7-(morpholin-4-yl)pyrazolo[1,5-a]pyrimidin-5-yl}-1H-1,3-benzimidazole]",43,44,1.0,13600,316,111,2.6,114,–,–,–
Cc1cc2nc(-n3c(C(F)F)nc4ccccc43)cc(N3CCOCC3)n2n1 [Compound 1],–,–,–,–,–,–,–,–,475,poor,–
"CC(C)(O)C1CCN(Cc2cc3nc(-n4c(C(F)F)nc5ccccc54)cc(N4CCOCC4)n3n2)CC1 [Compound 11, 2-[1-({5-[2-(difluoromethyl)-1H-benzimidazol-1-yl]-7-(morpholin-4-yl)pyrazolo[1,5-a]pyrimidin-2-yl}methyl)piperidin-4-yl]propan-2-ol]",52,1730,33,–,–,6350,122,–,–,–,–
"CCc1nc2ccccc2n1-c1cc(N2CCOCC2)n2nc(CN3CCN(C(C)(C)C)CC3)cc2n1 [Compound 7, 1-{2-[(4-tert-butylpiperazin-1-yl)methyl]-7-(morpholin-4-yl)pyrazolo[1,5-a]pyrimidin-5-yl}-2-ethyl-1H-benzimidazole]",385,28700,74,266000,690,258000,671,–,–,–,–
"CS(=O)(=O)N1CCN(Cc2cc3nc(-c4cccc5[nH]ncc45)nc(N4CCOCC4)c3s2)CC1 [GDC-0941, 2-(1 H -Indazol-4-Yl)-6-(4-Methanesulfonyl-Piperazin-1-Ylmethyl)-4-Morpholin-4-Yl-Thieno [3,2-d]Pyrimidine]",–,–,–,–,–,–,–,–,–,–,poor
"CCOC(=O)C1CCCN(Cc2cc3nc(-n4c(C(F)F)nc5ccccc54)cc(N4CCOCC4)n3n2)C1 (stereo not drawn) [Compound 26, 1-({5-[2-(difluoromethyl)-1H-1,3-benzodiazol-1-yl]-7-(morpholin-4-yl)pyrazolo[1,5-a]pyrimidin-2-yl}methyl)piperidine-3-carboxylate]",203,–,–,–,–,4280,21,–,–,–,–
"O=C(c1cc2nc(-n3c(C(F)F)nc4ccccc43)cc(N3CCOCC3)n2n1)N1CCCC1CO (stereo not drawn) [Compound 44, (1-{5-[2-(difluoromethyl)-1H-1,3-benzodiazol-1-yl]-7-(morpholin-4-yl)pyrazolo[1,5-a]pyrimidine-2-carbonyl}pyrrolidin-2-yl)methanol]",459,–,–,–,–,2020,4.4,–,–,–,–
"OCC1CCCN1Cc1cc2nc(-n3c(C(F)F)nc4ccccc43)cc(N3CCOCC3)n2n1 (stereo not drawn) [Compound 19, [1-({5-[2-(difluoromethyl)-1H-1,3-benzimidazol-1-yl]-7-(morpholin-4-yl)pyrazolo[1,5-a]pyrimidin-2-yl}methyl)pyrrolidin-2-yl]methanol]",1070,–,–,–,–,4470,4.2,–,–,–,–
"CC1(O)CCN(Cc2cc3nc(-n4c(C(F)F)nc5ccccc54)cc(N4CCOCC4)n3n2)CC1 [Compound 30, 1-({5-[2-(difluoromethyl)-1H-1,3-benzimidazol-1-yl]-7-(morpholin-4-yl)pyrazolo[1,5-a]pyrimidin-2-yl}methyl)-4-methylpiperidin-4-ol]",615,–,–,–,–,7550,12,–,–,–,–
"CC(C)N1CCN(Cc2cc3nc(-n4c(C(F)F)nc5ccccc54)cc(N4CCOCC4)n3n2)CC1 [Compound 38, 2-(difluoromethyl)-1-[7-(morpholin-4-yl)-2-{[4-(propan-2-yl)piperazin-1-yl]methyl}pyrazolo[1,5-a]pyrimidin-5-yl]-1H-1,3-benzimidazole]",38,–,–,–,–,13300,351,–,–,–,–
